# Tests used:
# [1] = biological target: T1, human sodium channels Nav 1.8 (Homo sapiens, UniProt Q9Y5Y9); assay: Automated whole-cell voltage-clamp (ScreenPatch 384P) sodium current block, Nav 1.8; type: cell-based; settings: CHO cells stably expressing human Nav 1.8; inactivation step -40 mV 8 s, test step 10 mV (TP1A); eight concentrations; exposure at least five minutes; room temperature; read-out: Nav1.8 IC50
# T1 construct: expressed in transfected cells
# How it was run: (§1)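 Stable CHO lines, whole-cell automated patch clamp at room temperature, ≥5 min exposure, eight concentrations. From -100 mV hold, 8 s at -40 mV, 20 ms at -100 mV, then test pulse to 10 mV (Nav 1.8) or 0 mV (Nav 1.7) at 0.05 Hz; peak-current % block fitted for IC50, averaged over repeats.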
# [2] = biological target: T2, human sodium channels Nav 1.7 (Homo sapiens, UniProt Q15858); assay: Automated whole-cell voltage-clamp (ScreenPatch 384P) sodium current block, Nav 1.7; type: cell-based; settings: CHO cells stably expressing human Nav 1.7; inactivation step -40 mV 8 s, test step 0 mV (TP1A); eight concentrations; exposure at least five minutes; room temperature; read-out: Nav1.7 IC50
# T2 construct: expressed in transfected cells
# T2 sequence (Q15858 whole entry): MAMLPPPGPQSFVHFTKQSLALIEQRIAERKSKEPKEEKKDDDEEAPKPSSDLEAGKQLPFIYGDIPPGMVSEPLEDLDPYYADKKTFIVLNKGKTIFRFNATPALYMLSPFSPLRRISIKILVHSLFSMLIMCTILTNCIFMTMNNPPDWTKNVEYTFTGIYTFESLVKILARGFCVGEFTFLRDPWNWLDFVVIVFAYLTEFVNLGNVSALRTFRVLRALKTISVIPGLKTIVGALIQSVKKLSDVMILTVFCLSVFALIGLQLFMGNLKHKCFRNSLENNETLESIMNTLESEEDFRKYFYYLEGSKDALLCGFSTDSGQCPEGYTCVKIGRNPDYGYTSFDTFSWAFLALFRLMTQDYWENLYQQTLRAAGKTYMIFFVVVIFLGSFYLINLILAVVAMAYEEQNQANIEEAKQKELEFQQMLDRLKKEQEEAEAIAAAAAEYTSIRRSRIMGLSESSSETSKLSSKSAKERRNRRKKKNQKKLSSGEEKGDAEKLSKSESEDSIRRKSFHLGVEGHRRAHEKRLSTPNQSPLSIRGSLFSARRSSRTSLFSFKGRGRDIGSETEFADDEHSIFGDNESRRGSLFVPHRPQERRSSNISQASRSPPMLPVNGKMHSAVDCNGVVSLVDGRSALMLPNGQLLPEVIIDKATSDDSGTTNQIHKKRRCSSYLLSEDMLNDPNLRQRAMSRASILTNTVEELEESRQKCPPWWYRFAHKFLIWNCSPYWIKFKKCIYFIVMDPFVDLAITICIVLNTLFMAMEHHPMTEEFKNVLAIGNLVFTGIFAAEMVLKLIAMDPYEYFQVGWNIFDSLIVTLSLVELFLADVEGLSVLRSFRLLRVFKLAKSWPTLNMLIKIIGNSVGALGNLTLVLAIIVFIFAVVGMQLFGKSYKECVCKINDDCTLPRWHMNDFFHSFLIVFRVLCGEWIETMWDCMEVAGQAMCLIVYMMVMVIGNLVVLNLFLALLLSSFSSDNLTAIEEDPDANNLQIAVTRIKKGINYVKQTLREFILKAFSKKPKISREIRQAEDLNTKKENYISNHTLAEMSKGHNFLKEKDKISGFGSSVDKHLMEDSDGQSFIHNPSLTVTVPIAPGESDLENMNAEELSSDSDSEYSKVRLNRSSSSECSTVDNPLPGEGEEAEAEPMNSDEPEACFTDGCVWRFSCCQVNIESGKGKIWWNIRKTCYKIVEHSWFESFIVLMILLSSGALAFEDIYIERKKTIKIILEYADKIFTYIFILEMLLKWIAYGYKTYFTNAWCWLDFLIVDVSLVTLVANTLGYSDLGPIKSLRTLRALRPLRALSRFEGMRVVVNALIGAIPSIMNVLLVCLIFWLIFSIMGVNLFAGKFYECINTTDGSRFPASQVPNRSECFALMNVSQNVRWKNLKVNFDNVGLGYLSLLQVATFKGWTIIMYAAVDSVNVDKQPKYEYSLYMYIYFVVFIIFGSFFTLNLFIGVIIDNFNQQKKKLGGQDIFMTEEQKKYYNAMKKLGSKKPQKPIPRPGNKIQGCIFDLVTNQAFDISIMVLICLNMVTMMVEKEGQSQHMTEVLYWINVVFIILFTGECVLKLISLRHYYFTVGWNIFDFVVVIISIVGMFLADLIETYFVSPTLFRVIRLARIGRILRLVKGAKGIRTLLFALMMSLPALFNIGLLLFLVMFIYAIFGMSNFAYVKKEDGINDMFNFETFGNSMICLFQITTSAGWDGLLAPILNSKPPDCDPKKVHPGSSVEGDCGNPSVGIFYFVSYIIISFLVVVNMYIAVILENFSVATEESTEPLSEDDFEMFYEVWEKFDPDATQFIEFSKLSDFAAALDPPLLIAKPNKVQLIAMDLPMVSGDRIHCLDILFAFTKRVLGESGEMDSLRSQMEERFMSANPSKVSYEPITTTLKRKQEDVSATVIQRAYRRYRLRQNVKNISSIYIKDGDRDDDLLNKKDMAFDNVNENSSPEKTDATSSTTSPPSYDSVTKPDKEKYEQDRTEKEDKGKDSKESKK
# How it was run: as §1
# T1 sequence (Q9Y5Y9 whole entry): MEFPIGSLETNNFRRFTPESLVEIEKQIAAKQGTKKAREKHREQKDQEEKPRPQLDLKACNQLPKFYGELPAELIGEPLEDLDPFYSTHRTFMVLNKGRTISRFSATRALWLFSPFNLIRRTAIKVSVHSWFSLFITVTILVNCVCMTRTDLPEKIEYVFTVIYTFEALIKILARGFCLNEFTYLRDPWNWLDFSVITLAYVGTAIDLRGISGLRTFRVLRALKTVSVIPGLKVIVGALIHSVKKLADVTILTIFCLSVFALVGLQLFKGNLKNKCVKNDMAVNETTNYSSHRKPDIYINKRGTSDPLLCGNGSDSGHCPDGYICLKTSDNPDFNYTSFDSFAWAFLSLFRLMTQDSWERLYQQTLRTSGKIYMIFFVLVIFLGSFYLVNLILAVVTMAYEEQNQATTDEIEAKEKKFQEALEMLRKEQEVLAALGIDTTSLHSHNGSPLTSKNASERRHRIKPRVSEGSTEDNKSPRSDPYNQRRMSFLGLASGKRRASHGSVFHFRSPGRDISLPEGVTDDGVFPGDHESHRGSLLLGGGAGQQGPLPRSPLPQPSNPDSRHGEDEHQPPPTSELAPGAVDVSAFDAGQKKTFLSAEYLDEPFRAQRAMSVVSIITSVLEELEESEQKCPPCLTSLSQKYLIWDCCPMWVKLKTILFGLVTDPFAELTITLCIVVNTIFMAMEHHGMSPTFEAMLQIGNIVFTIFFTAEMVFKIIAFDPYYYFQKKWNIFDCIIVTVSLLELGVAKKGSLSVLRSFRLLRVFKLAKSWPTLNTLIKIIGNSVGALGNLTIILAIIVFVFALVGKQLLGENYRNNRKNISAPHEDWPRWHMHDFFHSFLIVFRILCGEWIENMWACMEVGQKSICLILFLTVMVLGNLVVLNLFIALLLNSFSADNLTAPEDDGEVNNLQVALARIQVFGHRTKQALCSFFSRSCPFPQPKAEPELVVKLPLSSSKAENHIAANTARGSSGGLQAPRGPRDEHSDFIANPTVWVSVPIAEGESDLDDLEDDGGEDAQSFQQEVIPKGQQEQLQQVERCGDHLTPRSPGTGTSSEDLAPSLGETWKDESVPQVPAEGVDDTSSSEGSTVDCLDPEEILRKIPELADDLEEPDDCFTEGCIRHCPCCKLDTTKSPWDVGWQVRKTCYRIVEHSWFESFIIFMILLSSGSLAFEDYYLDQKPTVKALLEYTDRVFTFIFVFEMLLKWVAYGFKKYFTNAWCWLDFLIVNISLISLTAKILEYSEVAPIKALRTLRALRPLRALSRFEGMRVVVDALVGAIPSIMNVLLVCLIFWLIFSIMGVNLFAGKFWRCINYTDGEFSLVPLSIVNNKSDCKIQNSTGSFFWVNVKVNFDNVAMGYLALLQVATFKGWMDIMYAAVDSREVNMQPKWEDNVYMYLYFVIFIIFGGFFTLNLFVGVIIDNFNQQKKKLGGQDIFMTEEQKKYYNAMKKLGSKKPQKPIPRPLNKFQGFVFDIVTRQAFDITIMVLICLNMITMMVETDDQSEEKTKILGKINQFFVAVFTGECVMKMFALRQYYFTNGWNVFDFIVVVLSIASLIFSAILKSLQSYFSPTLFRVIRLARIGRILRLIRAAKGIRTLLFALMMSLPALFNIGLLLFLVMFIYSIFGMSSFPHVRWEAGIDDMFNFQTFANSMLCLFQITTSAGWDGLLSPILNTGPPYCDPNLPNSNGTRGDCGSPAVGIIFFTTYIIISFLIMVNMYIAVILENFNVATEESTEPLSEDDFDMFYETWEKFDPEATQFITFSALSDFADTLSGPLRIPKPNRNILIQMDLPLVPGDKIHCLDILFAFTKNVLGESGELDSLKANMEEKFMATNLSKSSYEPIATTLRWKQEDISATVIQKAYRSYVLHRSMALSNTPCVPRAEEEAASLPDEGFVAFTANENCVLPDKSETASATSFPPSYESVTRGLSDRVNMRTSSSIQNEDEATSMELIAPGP
IC50 [1],IC50 [2],SMILES
< 500 nM,> 1000 nM,"CN(C)c1ccc(F)c(/C=N/NC(=O)c2cncc(-c3ccc(OC(F)(F)F)nc3)n2)c1 [Compound 93, (E)-N'-(5-(dimethylamino)-2-fluorobenzylidene)-6-(6-(trifluoromethoxy)pyridine-3-yl) pyrazine-2-carbohydrazide]"
< 500 nM,< 500 nM,"O=C(N/N=C/c1cc(OC2CC2)ccc1F)c1cncc(-c2ccc(OC(F)(F)F)nc2)n1 [Compound 94, (E)-N'-(5-cyclopropoxy-2-fluorobenzylidene)-6-(6-(trifluoromethoxy)pyridine-3-yl)pyrazine-2-carbohydrazide]"
< 500 nM,> 1000 nM,"COc1cnc(F)c(/C=N/NC(=O)c2cncc(-c3ccc(OC(F)(F)F)nc3)n2)c1 [Compound 95, (E)-N'-((2-fluoro-5-methoxypyridine-3-yl)methylene)-6-(6-(trifluoromethoxy)pyridine-3-yl)pyrazine-2-carbohydrazide]"
< 500 nM,> 1000 nM,"COc1cc(/C=N/NC(=O)c2cncc(-c3ccc(OC(F)(F)F)nc3)n2)c(F)cn1 [Compound 96, (E)-N'-((5-fluoro-2-methoxypyridine-4-yl)methylene)-6-(6-(trifluoromethoxy)pyridine-3-yl)pyrazine-2-carbohydrazide]"
> 1000 nM,> 1000 nM,"COc1ccc(F)c(/C=N/NC(=O)c2cncc(-c3ccc(OC(F)(F)F)nc3)n2)n1 [Compound 97, (E)-N'-((3-fluoro-6-methoxypyridine-2-yl)methylene)-6-(6-(trifluoromethoxy)pyridine-3-yl)pyrazine-2-carbohydrazide]"
> 1000 nM,> 1000 nM,"COc1ccc(F)c(/C=N/NC(=O)c2cnc(O)c(-c3ccc(OC(F)(F)F)nc3)n2)c1 [Compound 98, (E)-N'-(2-fluoro-5-methoxybenzylidene)-5-hydroxy-6-(6-(trifluoromethoxy)pyridine-3-yl)pyrazine-2-carbohydrazide]"
> 1000 nM,> 1000 nM,"COc1ccc(F)c(/C=N/NC(=O)c2nc(-c3ccc(OC(F)(F)F)nc3)cnc2O)c1 [Compound 99, (E)-N'-(2-fluoro-5-methoxybenzylidene)-3-hydroxy-6-(6-(trifluoromethoxy)pyridine-3-yl)pyrazine-2-carbohydrazide]"
< 500 nM,500 to 1000 nM,"COc1ccc(F)c(/C=N/NC(=O)c2cncc(-c3ccc(OC(F)F)nc3)n2)c1 [Compound 100, (E)-6-(6-(difluoromethoxy)pyridine-3-yl)-N'-(2-fluoro-5-methoxybenzylidene) pyrazine-2-carbohydrazide]"
< 500 nM,> 1000 nM,"COc1cnc(F)c(/C=N/NC(=O)c2cncc(-c3ccc(OC(F)F)nc3)n2)c1 [Compound 101, (E)-6-(6-(difluoromethoxy)pyridine-3-yl)-N'-((2-fluoro-5-methoxypyridine-3-yl)methylene)pyrazine-2-carbohydrazide]"
< 500 nM,> 1000 nM,"COc1ccc(C)c(/C=N/NC(=O)c2cncc(-c3ccc(OC(F)F)nc3)n2)c1 [Compound 102, (E)-6-(6-(difluoromethoxy)pyridine-3-yl)-N'-(5-methoxy-2-methylbenzylidene) pyrazine-2-carbohydrazide]"
< 500 nM,> 1000 nM,"COc1cnc(C)c(/C=N/NC(=O)c2cncc(-c3ccc(OC(F)F)nc3)n2)c1 [Compound 103, (E)-6-(6-(difluoromethoxy)pyridine-3-yl)-N'-((5-methoxy-2-methylpyridine-3-yl)methylene)pyrazine-2-carbohydrazide]"
< 500 nM,> 1000 nM,"CN(C)c1ccc(F)c(/C=N/NC(=O)c2cncc(-c3ccc(OC(F)F)nc3)n2)c1 [Compound 104, (E)-6-(6-(difluoromethoxy)pyridine-3-yl)-N'-(5-(dimethylamino)-2-fluorobenzylidene) pyrazine-2-carbohydrazide]"
500 to 1000 nM,> 1000 nM,"COc1cc(/C=N/NC(=O)c2cncc(-c3ccc(OC(F)F)nc3)n2)c(F)cn1 [Compound 106, (E)-6-(6-(difluoromethoxy)pyridine-3-yl)-N'-((5-fluoro-2-methoxypyridine-4-yl)methylene)pyrazine-2-carbohydrazide]"
> 1000 nM,> 1000 nM,"COc1cncc(/C=N/NC(=O)c2cncc(-c3ccc(OC(F)F)nc3)n2)c1 [Compound 107, (E)-6-(6-(difluoromethoxy)pyridine-3-yl)-N'-((5-methoxypyridine-3-yl)methylene)pyrazine-2-carbohydrazide]"
500 to 1000 nM,> 1000 nM,"CC(O)c1cccc(/C=N/NC(=O)c2cncc(-c3ccc(OC(F)F)nc3)n2)c1 (stereo not drawn) [Compound 109, (E)-6-(6-(difluoromethoxy)pyridine-3-yl)-N'-(3-(1-hydroxyethyl)benzylidene) pyrazine-2-carbohydrazide]"
< 500 nM,> 1000 nM,"CC(O)c1ccc(F)c(/C=N/NC(=O)c2cncc(-c3ccc(OC(F)F)nc3)n2)c1 (stereo not drawn) [Compound 110, (E)-6-(6-(difluoromethoxy)pyridine-3-yl)-N'-(2-fluoro-5-(1-hydroxyethyl)benzylidene)pyrazine-2-carbohydrazide]"
> 1000 nM,> 1000 nM,"CC(O)c1cncc(/C=N/NC(=O)c2cncc(-c3ccc(OC(F)F)nc3)n2)c1 (stereo not drawn) [Compound 111, (E)-6-(6-(difluoromethoxy)pyridine-3-yl)-N'-((5-(1-hydroxyethyl)pyridine-3-yl)methylene)pyrazine-2-carbohydrazide]"
500 to 1000 nM,> 1000 nM,"CC(O)c1cnc(F)c(/C=N/NC(=O)c2cncc(-c3ccc(OC(F)F)nc3)n2)c1 (stereo not drawn) [Compound 112, (E)-6-(6-(difluoromethoxy)pyridine-3-yl)-N'-((2-fluoro-5-(1-hydroxyethyl)pyridine-3-yl)methylene)pyrazine-2-carbohydrazide]"
500 to 1000 nM,> 1000 nM,"O=C(N/N=C/c1cc(O)cnc1F)c1cncc(-c2ccc(OC(F)F)nc2)n1 [Compound 113, (E)-6-(6-(difluoromethoxy)pyridine-3-yl)-N'-((2-fluoro-5-hydroxypyridine-3-yl)methylene)pyrazine-2-carbohydrazide]"
> 1000 nM,> 1000 nM,"O=C(N/N=C/c1cccc(O)n1)c1cncc(-c2ccc(OC(F)F)nc2)n1 [Compound 115, (E)-6-(6-(difluoromethoxy)pyridine-3-yl)-N'-((6-hydroxypyridine-2-yl)methylene) pyrazine-2-carbohydrazide]"
> 1000 nM,> 1000 nM,"COc1cnc(O)c(/C=N/NC(=O)c2cncc(-c3ccc(OC(F)F)nc3)n2)c1 [Compound 117, (E)-6-(6-(difluoromethoxy)pyridine-3-yl)-N'-((2-hydroxy-5-methoxypyridine-3-yl)methylene)pyrazine-2-carbohydrazide]"
> 1000 nM,> 1000 nM,"COc1cc(/C=N/NC(=O)c2cncc(-c3ccc(OC(F)F)nc3)n2)cc(O)n1 [Compound 118, (E)-6-(6-(difluoromethoxy)pyridine-3-yl)-N'-((2-hydroxy-6-methoxypyridine-4-yl)methylene)pyrazine-2-carbohydrazide]"
500 to 1000 nM,> 1000 nM,"COc1cc(O)c(F)c(/C=N/NC(=O)c2cncc(-c3ccc(OC(F)F)nc3)n2)c1 [Compound 119, (E)-6-(6-(difluoromethoxy)pyridine-3-yl)-N'-(2-fluoro-3-hydroxy-5-methoxybenzylidene)pyrazine-2-carbohydrazide]"
> 1000 nM,> 1000 nM,"COc1ccc(O)c(/C=N/NC(=O)c2cncc(-c3ccc(OC(F)F)nc3)n2)c1 [Compound 120, (E)-6-(6-(difluoromethoxy)pyridine-3-yl)-N'-(2-hydroxy-5-methoxybenzylidene)pyrazine-2-carbohydrazide]"
< 500 nM,< 500 nM,"COc1cnc(F)c(/C=N/NC(=O)c2cccc(-c3ccc(OC(F)F)nc3)n2)c1 [Compound 125, (E)-6'-(difluoromethoxy)-N'-((2-fluoro-5-methoxypyridine-3-yl)methylene)-[2,3'-bipyridine]-6-carbohydrazide]"

SMILES,IC50 [1],IC50 [2]
"CN(C)c1cnc(F)c(/C=N/NC(=O)c2cncc(-c3ccc(OC(F)F)nc3)n2)c1 [Compound 105, (E)-6-(6-(difluoromethoxy)pyridine-3-yl)-N'-((5-(dimethylamino)-2-fluoropyridine-3-yl)methylene)pyrazine-2-carbohydrazide]",> 1000 nM,> 1000 nM
"CC(O)c1ccnc(/C=N/NC(=O)c2cncc(-c3ccc(OC(F)F)nc3)n2)c1 (stereo not drawn) [Compound 114, (E)-6-(6-(difluoromethoxy)pyridine-3-yl)-N'-((4-(1-hydroxyethyl)pyridine-2-yl)methylene)pyrazine-2-carbohydrazide]",> 1000 nM,> 1000 nM
"COc1cnc(F)c(/C=N/NC(=O)c2ccnc(-c3ccc(OC(F)F)nc3)n2)c1 [Compound 126, (E)-2-(6-(difluoromethoxy)pyridine-3-yl)-N'-((2-fluoro-5-methoxypyridine-3-yl)methylene) pyrimidine-4-carbohydrazide]",500 to 1000 nM,> 1000 nM
"COc1cnc(F)c(/C=N/NC(=O)c2nccc(-c3ccc(OC(F)F)nc3)n2)c1 [Compound 127, (E)-4-(6-(difluoromethoxy)pyridine-3-yl)-N'-((2-fluoro-5-methoxypyridine-3-yl)methylene)pyrimidine-2-carbohydrazide]",500 to 1000 nM,> 1000 nM
"COc1cnc(F)c(/C=N/NC(=O)c2cncc(-c3ccc(OC(F)F)nc3)c2)c1 [Compound 128, (E)-6'-(difluoromethoxy)-N'-((2-fluoro-5-methoxypyridine-3-yl)methylene)-[3,3'-bipyridine]-5-carbohydrazide]",> 1000 nM,> 1000 nM

# Reference: patent EP4660182A1, “NAV1.7- AND/OR NAV1.8-INHIBITING ARYL PYRIDINE COMPOUNDS, PROCESSES FOR THE PREPARATION THEREOF, COMPOSITIONS, USES, METHODS FOR TREATMENT USING SAME, AND KITS” (Eurofarma Laboratórios S.A., priority 2023, dated 2024)
